Measurements: article PMC3364162 (Journal of Medicinal Chemistry, 2012)

System: HEK293T cells
Test: Toxicity by CellTiter-Glo
Format: cell-based, human
Conditions: Conc. 62.5 μM

| Molecule | Toxicity (%) |
| --- | --- |
| COc1cccc(C(Nc2ccccn2)c2c(C)[nH]c3ccccc23)c1 (stereo not shown) [compound 13] | 60 |
| Cc1[nH]c2ccccc2c1C(Nc1ccccn1)c1ccc(F)cc1 (stereo not shown) [compound 16] | 100 |
| Cc1c(C=O)c(C(=O)O)c(C)n1Cc1ccc(Cl)cc1 [compound 23] | 20 |
| Cc1ccc(S(=O)(=O)ON2C(=O)c3ccccc3C2=O)cc1 [compound 20] | 50 |
| Cc1[nH]c2ccccc2c1C(Nc1ccccn1)c1cccc(Cl)c1 (stereo not shown) [compound 18] | 100 |
| Cc1ccc(C(Nc2ccccn2)c2c(C)[nH]c3ccccc23)cc1 (stereo not shown) [compound 12] | 90 |
| COc1ccc(C(Nc2ccccn2)c2c(C)[nH]c3ccccc23)cc1 (stereo not shown) [compound 11] | 100 |
| COCC(=O)Oc1c(Sc2ccc(Cl)cc2)c(C)nn1-c1ccccc1 [compound 26] | 0 |
| COc1ccc(OC)c(S(=O)(=O)ON2C(=O)c3ccccc3C2=O)c1 [compound 21] | 50 |

System: DU145 cells
Test: Cytotoxicity in DU145 cells
Format: cell-based, human
Conditions: not given

| Molecule | Concentration above which increased cytotoxicity was observed |
| --- | --- |
| Cc1[nH]c2ccccc2c1C(Nc1ccc(Cl)cc1)c1ccccc1Cl (stereo not shown) [31b] | higher than 20 μM |

Biological target: T1, SRC2-2 coactivator peptide SRC2-2 (Homo sapiens, UniProt Q15596)
T1 chain: KHKILHRLLQDSS
Test: not given
Conditions: not given

| Kd [nM] | Molecule |
| --- | --- |
| 1700 | Vitamin D receptor (protein) MEAMAASTSLPDPGDFDRNVPRICGVCGDRATGFHFNAMTCEGCKGFFRRSMKRKALFTCPFNGDCRITKDNRRHCQACRLKRCVDIGMMKEFILTDEEVQRKREMILKRKEEEALKDSLRPKLSEEQQRIIAILLDAHHKTYDPTYSDFCQFRPPVRVNDGGGSHPSRPNSRHTPSFSGDSSSSCSDHCITSSDMMDSSSFSNLDLSEEDSDDPSVTLELSQLSMLPHLADLVSYSIQKVIGFAKMIPGFRDLTSEDQIVLLKSSAIEVIMLRSNESFTMDDMSWTCGNQDYKYRVSDVTKAGHSLELIEPLIKFQVGLKKLNLHEEEHVLLMAICIVSPDRPGVQDAALIEAIQDRLSNTLQTYIRCRHPPPGSHLLYAKMIQKLADLRSLNEEHSKQYRCLSFQPECSMKLTPLVLEVFGNEIS |

System: not listed separately
Test: in vitro
Conditions: PAMPA, pH 7.4

| Papp [×10⁻⁶ cm/s] | Molecule |
| --- | --- |
| 0.00525 | Cc1c(C=O)c(C(=O)O)c(C)n1Cc1ccc(Cl)cc1 [compound 23] |
| 0.0117 | COC(=O)c1ccc(/C=C/C2=[N+](C)c3ccc(OC)cc3C2(C)C)cc1 [compound 4] |
| 0.437 | CC(C)S(=O)(=O)c1oc(-c2cccs2)nc1S(=O)(=O)c1ccccc1 [compound 10] |
| 0.02 | COC(=O)c1ccc2c(c1)C(C)(C)C(/C=C/c1ccc(O)cc1)=[N+]2C [compound 5] |
| 0.0138 | COC(=O)c1ccc2c(c1)C(C)(C)C(/C=C/c1ccc(OC)cc1)=[N+]2C [compound 1] |
| 0.00195 | Cc1ccc(S(=O)(=O)ON2C(=O)c3ccccc3C2=O)cc1 [compound 20] |
| 0.251 | CCCS(=O)(=O)c1oc(-c2cccs2)nc1S(=O)(=O)c1ccc(F)cc1 [compound 7] |
| 0.148 | Cc1[nH]c2ccccc2c1C(Nc1ccccc1)c1ccc(CCCO)cc1 (stereo not shown) [30i] |
| 0.0525 | Nc1nc2ccc(S(=O)(=O)N3CCCCC3)cc2s1 [compound 27] |
| 0.214 | CCS(=O)(=O)c1oc(-c2cccs2)nc1S(=O)(=O)c1ccccc1 [compound 8] |
| 1.12 | Cc1cccc(N2COc3ccc4ccccc4c3C2)c1 [compound 29] |
| 0.00603 | CCOc1ccc(/C=C/C2=[N+](C)c3ccc(C(=O)OC)cc3C2(C)C)cc1 [compound 3] |
| 0.166 | CCCCNC(=O)Cn1sc2nc(C)cc(C)c2c1=O [compound 28] |
| 0.0331 | COCC(=O)Oc1c(Sc2ccc(Cl)cc2)c(C)nn1-c1ccccc1 [compound 26] |
| 0.166 | CC(C)CS(=O)(=O)c1oc(-c2cccs2)nc1S(=O)(=O)c1ccc(F)cc1 [compound 9] |
| 0.0148 | CCc1ccc(S(=O)(=O)ON2C(=O)c3ccccc3C2=O)cc1 [compound 22] |
| 0.0145 | COc1ccc(OC)c(S(=O)(=O)ON2C(=O)c3ccccc3C2=O)c1 [compound 21] |
| 0.282 | COc1ccc(/C=C/C2=[N+](C)c3ccc(OC)cc3C2(C)C)cc1 [compound 2] |

| Molecule | Papp [×10⁻⁶ cm/s] |
| --- | --- |
| O=Cc1nc2ccccc2n1Cc1ccc2ccccc2c1 [compound 24] | 0.513 |
| O=Cc1nc2ccccc2n1Cc1ccc(Cl)cc1Cl [compound 25] | 0.302 |
